How the values were obtained:
Male ICR mice [1] = experiment: Locomotor activity test; type: in vivo; settings: oral; for Locomotor Activity Score: 5 minute period
Experimental: (§1) Male ICR mice weighing 18–23 g were used. They were housed in groups of four or five with free access to food and water and maintained on a 11 hour light: 13 hour dark cycle. All of the experimental groups, except acute lethal activity test (10 mice of either sex) have 16 animals per group.
(§2) For the chronic test, mice received 5 days pretreatment before the test. Flumazenil (Ro15-1788) was administrated intraperitoneally (IP) 15 minutes before testing in an injection volume of 12.5 ml/kg.
A ZIL-2 apparatus (Beijing Institute of Materia Medica) with dimensions 60×60×12 cm was used. It consists of four circular plastic boxes with diameter 25 cm and each has 6 equally distributed infrared photocells. The locomotor activity was counted automatically during a 5 minute period of test. An increase in the number of transitions reflects an increased locomotor activity.

Male ICR mice [2] = experiment: Holeboard test; type: in vivo; settings: oral; for Head-dip Number / Head-dip Time: 5 minutes
Experimental: as §1, §2
The holeboard was a wooden box, 60×60×30 cm, with four holes of 3 cm diameter equally spaced in the floor. Mice were placed in the center of the holeboard and the number of head-dips, the time spent head-dipping were counted during 5 minutes (File, S. E., and Pellow, S., Br J Pharmacol 86: 729–735, 1985). Mice were allocated to different test groups randomly, and tested in an randomized order of drug treatment between 8 A.M. and 12 P.M. in a room lit by dim light. After each trial, the floor of the apparatus was wiped and dried thoroughly with tissue to remove traces of the previous path. An increase in the number and time spent head-dipping in this test are indicative of a greater exploratory activity. Conversely, a decrease in any of these parameters compared to controls is symptomatic of sedated behavior (Nolan, N. A., and Parkes, M. W., Psychopharmacol 29: 277–288, 1973; File, S. E., and Wardill, A. G., Psychopharmacol 44: 53–59, 1975; File, S. E., and Pellow, S., Psychopharmacol 88:1–11, 1986).

Male ICR mice [3] = experiment: Elevated plus-maze; type: in vivo; settings: for Total (total number of arm entries): 5 minute test
Experimental: as §1, §2
The elevated plus-maze was made of wood and consisted of two open arms (25×5 cm) and two opposite arms enclosed by 20 cm high walls. The arms extended from a central platform (5×5 cm). The plus-maze was elevated to a height of 40 cm. The maze was put inside a box 30×30×50 cm. […] The number of entries into and the time spent on the open and closed arms were counted. The total number of arm entries provided a measure of general activity, and anxiety reduces the number of such entries. At the end of the test, the number of entries into open arms was expressed as a percentage of the total number of arm entries. The time spent on the open arms was also expressed as a percentage of time spent on both the open and closed arms. Testing took place between 8 A.M. and 12 P.M. Mice were randomly allocated to different test groups, and tested in a randomized order of drug treatment in a room lit by dim light. After each trial, the floor of the apparatus was wiped and dried thoroughly with tissue to remove traces of the previous path.

Male ICR mice [4] = experiment: Horizontal wire test; type: in vivo; settings: up to 30 mg/kg, 1 hour after oral administration, FIG. 5
Experimental: as §1, §2
Mice were lifted by the tail and allowed to grasp a horizontally strung wire (1 mm diameter, 15 cm long and placed 20 cm above the table) with their forepaws and released (Bonetti, E. P., et al., Psychopharmacol 78: 8–18, 1982). […] After two trials performed at 5 minute intervals, the test took place. A myorelaxant drug impairs the capacity of the mice to grasp the wire. Such muscle relaxation is commonly associated with sedation.

[5] = Acute lethal activity test; settings: both sexes, ICR, mouse, in vivo; in mice
Experimental: as §1

[6] = tested on: BZD-S of the GABAA-receptor; settings: as variously reported; cited from earlier work
[7] = Acute, 1 hour before test, 3.75 mg/kg
[8] = Acute, 1 hour before test, 7.5 mg/kg
[9] = Acute, 1 hour before test, 15 mg/kg
[10] = Acute, 1 hour before test, 30 mg/kg
[11] = Chronic (5 days pretreatment), 3.75 mg/kg
[12] = Chronic (5 days pretreatment), 7.5 mg/kg
[13] = Chronic (5 days pretreatment), 15 mg/kg
[14] = Chronic (5 days pretreatment), 30 mg/kg
[15] = Acute, 1 hour before test, 1 mg/kg
[16] = Chronic (5 days pretreatment), 1 mg/kg

COc1c(O)cc(O)c2c(=O)cc(-c3ccccc3)oc12 [wogonin]
Locomotor Activity Score (Male ICR mice [1]; [7]): 189.44 ± 6.54 | Locomotor Activity Score (Male ICR mice [1]; [8]): 205.63 ± 13.11 | Locomotor Activity Score (Male ICR mice [1]; [9]): 207.38 ± 10.12 | Locomotor Activity Score (Male ICR mice [1]; [10]): 193.50 ± 6.39 | Locomotor Activity Score (Male ICR mice [1]; [11]): 149.75 ± 6.55 | Locomotor Activity Score (Male ICR mice [1]; [12]): 170.56 ± 12.00 | Locomotor Activity Score (Male ICR mice [1]; [13]): 172.75 ± 6.25 | Locomotor Activity Score (Male ICR mice [1]; [14]): 184.56 ± 7.88 | Sedative effects (change in motor activity) (Male ICR mice [1]; up to 30 mg/kg body weight, mice): did not induce any sedative effects | Head-dip Number (Male ICR mice [2]; [7]): 23.88 ± 1.08 | Head-dip Time (Male ICR mice [2]; [7]): 27.00 ± 1.10 | Head-dip Number (Male ICR mice [2]; [8]): 31.06 ± 1.88 | Head-dip Time (Male ICR mice [2]; [8]): 36.38 ± 1.93 | Head-dip Number (Male ICR mice [2]; [9]): 37.00 ± 1.94 | Head-dip Time (Male ICR mice [2]; [9]): 42.25 ± 2.54 | Head-dip Number (Male ICR mice [2]; [10]): 42.75 ± 3.58 | Head-dip Time (Male ICR mice [2]; [10]): 48.19 ± 3.92 | Head-dip Number (Male ICR mice [2]; [11]): 23.88 ± 1.86 | Head-dip Time (Male ICR mice [2]; [11]): 26.88 ± 1.95 | Head-dip Number (Male ICR mice [2]; [12]): 32.31 ± 1.80 | Head-dip Time (Male ICR mice [2]; [12]): 38.00 ± 0.79 | Head-dip Number (Male ICR mice [2]; [13]): 32.81 ± 2.27 | Head-dip Time (Male ICR mice [2]; [13]): 37.38 ± 2.32 | Head-dip Number (Male ICR mice [2]; [14]): 30.13 ± 1.59 | Head-dip Time (Male ICR mice [2]; [14]): 35.88 ± 1.81 | Sedative effect (holeboard) (Male ICR mice [2]; up to 30 mg/kg, mice): did not induce a significant sedative effect | Anxiolytic effects: open arm entries (acute), % time spent in open arms (acute), % open arm entries (chronic) (Male ICR mice [3]; 7.5, 15 or 30 mg/kg, oral, mice, FIG. 3): significant anxiolytic effects | Total (total number of arm entries) (Male ICR mice [3]; Acute, oral, 1 hour before test, 3.75 mg/kg): 34.56 ± 0.97 | Total (total number of arm entries) (Male ICR mice [3]; Acute, oral, 1 hour before test, 7.5 mg/kg): 45.56 ± 1.71 | Total (total number of arm entries) (Male ICR mice [3]; Acute, oral, 1 hour before test, 15 mg/kg): 43.50 ± 1.90 | Total (total number of arm entries) (Male ICR mice [3]; Acute, oral, 1 hour before test, 30 mg/kg): 47.00 ± 1.93 | Total (total number of arm entries) (Male ICR mice [3]; Chronic (5 days pretreatment), oral, 3.75 mg/kg): 27.56 ± 1.90 | Total (total number of arm entries) (Male ICR mice [3]; Chronic (5 days pretreatment), oral, 7.5 mg/kg): 31.75 ± 2.07 | Total (total number of arm entries) (Male ICR mice [3]; Chronic (5 days pretreatment), oral, 15 mg/kg): 31.56 ± 2.13 | Total (total number of arm entries) (Male ICR mice [3]; Chronic (5 days pretreatment), oral, 30 mg/kg): 31.31 ± 1.77 | Anxiolytic effect of wogonin after treatment with Flumazenil Ro15-1788 (Male ICR mice [3]; Flumazenil Ro15-1788 2.5 mg/kg IP 15 minutes before testing, mice, FIG. 4): completely abolished | Myorelaxant effects (Male ICR mice [4]): devoid of myorelaxant effects | LD50 [5]: ~4000 mg/kg | Binding affinity to the BZD-S of the GABAA-receptor [6]: weak or moderate

CN1C(=O)CN=C(c2ccccc2)c2cc(Cl)ccc21 [diazepam, reference compound]
Locomotor Activity Score (Male ICR mice [1]; [15]): 225.29 ± 15.80 | Locomotor Activity Score (Male ICR mice [1]; [16]): 195.25 ± 13.03 | Head-dip Number (Male ICR mice [2]; [15]): 28.88 ± 2.16 | Head-dip Time (Male ICR mice [2]; [15]): 37.00 ± 0.79 | Head-dip Number (Male ICR mice [2]; [16]): 31.94 ± 3.57 | Head-dip Time (Male ICR mice [2]; [16]): 36.50 ± 3.59 | Total (total number of arm entries) (Male ICR mice [3]; Acute, oral, 1 hour before test, 1 mg/kg): 45.13 ± 2.31 | Total (total number of arm entries) (Male ICR mice [3]; Chronic (5 days pretreatment), oral, 1 mg/kg): 29.38 ± 2.67

— US7183314B1, “Compound for treatment of anxiety and methods of preparation and use thereof” (Naturon Limited, priority 2000, dated 2007)
